# Data from the supplement of paper PMC10307832.
# What was measured:
# Assay in all cases: relative viability (nuclei count vs DMSO), 5 days (fraction); higher = more cells survive
# LCLC-97TM1 = test system: LCLC-97TM1
# Outline: (§1)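 After 5 days of treatment, lung cancer cells in 1536-well plates were fixed and stained in a single step (final 0.05% Triton X-100, 1% formaldehyde, 1 ug/ml Hoechst) and their nuclei counted on 4× images. Treatment had been applied by pin tool the day after seeding as one drug alone or as a fixed anchor-drug dose with five library-drug doses (not always all listed) in √10 steps. Relative viability is the nuclei count of treated wells divided by that of vehicle wells, and values are medians of duplicate plates.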
# NCI-H1734 = test system: NCI-H1734
# Outline: as §1
# SW 900 = test system: SW 900
# Outline: as §1
# SW 1573 = test system: SW 1573
# Outline: as §1
# LC-2-ad = test system: LC-2-ad
# Outline: as §1
# NCI-H1563 = test system: NCI-H1563
# Outline: as §1
# NCI-H2023 = test system: NCI-H2023
# Outline: as §1
# HCC-44 = test system: HCC-44
# Outline: as §1
# NCI-H520 = test system: NCI-H520
# Outline: as §1
# UMC-11 = test system: UMC-11
# Outline: as §1
# COR-L 105 = test system: COR-L 105
# Outline: as §1
# NCI-H2342 = test system: NCI-H2342
# Outline: as §1
structure (smiles),measurement,setting,value
Cc1cn(-c2cc(NC(=O)c3ccc(C)c(Nc4nccc(-c5cccnc5)n4)c3)cc(C(F)(F)F)c2)cn1 [Nilotinib] + COc1cccc2cc(-c3nc([C@H]4CC[C@H](C(=O)O)CC4)n4ncnc(N)c34)[nH]c12 [OSI-027] (partner 0.5 µM),relative viability,LCLC-97TM1; first compound 0.001 µM,0.552
same,relative viability,LCLC-97TM1; first compound 0.003162 µM,0.559
same,relative viability,LCLC-97TM1; first compound 0.01 µM,0.479
same,relative viability,LCLC-97TM1; first compound 0.03162 µM,0.432
same,relative viability,LCLC-97TM1; first compound 0.1 µM,0.467
same,relative viability,NCI-H1734; first compound 0.001 µM,0.57
same,relative viability,NCI-H1734; first compound 0.003162 µM,0.595
same,relative viability,NCI-H1734; first compound 0.01 µM,0.64
same,relative viability,NCI-H1734; first compound 0.03162 µM,0.435
same,relative viability,NCI-H1734; first compound 0.1 µM,0.261
same,relative viability,SW 900; first compound 0.001 µM,0.46
same,relative viability,SW 900; first compound 0.003162 µM,0.492
same,relative viability,SW 900; first compound 0.01 µM,0.595
same,relative viability,SW 900; first compound 0.03162 µM,0.354
same,relative viability,SW 900; first compound 0.1 µM,0.465
same,relative viability,SW 1573; first compound 0.001 µM,0.566
same,relative viability,SW 1573; first compound 0.003162 µM,0.751
same,relative viability,SW 1573; first compound 0.01 µM,0.72
same,relative viability,SW 1573; first compound 0.03162 µM,0.276
same,relative viability,SW 1573; first compound 0.1 µM,0.155
same,relative viability,LC-2-ad; first compound 0.001 µM,0.739
same,relative viability,LC-2-ad; first compound 0.003162 µM,0.909
same,relative viability,LC-2-ad; first compound 0.01 µM,0.795
same,relative viability,LC-2-ad; first compound 0.03162 µM,0.728
same,relative viability,LC-2-ad; first compound 0.1 µM,0.472
same,relative viability,NCI-H1563; first compound 0.001 µM,0.72
same,relative viability,NCI-H1563; first compound 0.003162 µM,0.731
same,relative viability,NCI-H1563; first compound 0.01 µM,0.681
same,relative viability,NCI-H1563; first compound 0.03162 µM,0.74
same,relative viability,NCI-H1563; first compound 0.1 µM,0.666
same,relative viability,NCI-H2023; first compound 0.001 µM,0.303
same,relative viability,NCI-H2023; first compound 0.003162 µM,0.3
same,relative viability,NCI-H2023; first compound 0.01 µM,0.313
same,relative viability,NCI-H2023; first compound 0.03162 µM,0.277
same,relative viability,NCI-H2023; first compound 0.1 µM,0.195
same,relative viability,HCC-44; first compound 0.001 µM,0.498
same,relative viability,HCC-44; first compound 0.003162 µM,0.391
same,relative viability,HCC-44; first compound 0.01 µM,0.43
same,relative viability,HCC-44; first compound 0.03162 µM,0.505
same,relative viability,HCC-44; first compound 0.1 µM,0.382
same,relative viability,NCI-H520; first compound 0.001 µM,0.269
same,relative viability,NCI-H520; first compound 0.003162 µM,0.279
same,relative viability,NCI-H520; first compound 0.01 µM,0.325
same,relative viability,NCI-H520; first compound 0.03162 µM,0.281
same,relative viability,NCI-H520; first compound 0.1 µM,0.276
same,relative viability,UMC-11; first compound 0.001 µM,0.482
same,relative viability,UMC-11; first compound 0.003162 µM,0.527
same,relative viability,UMC-11; first compound 0.01 µM,0.432
same,relative viability,UMC-11; first compound 0.1 µM,0.246
same,relative viability,COR-L 105; first compound 0.001 µM,0.831
same,relative viability,COR-L 105; first compound 0.003162 µM,0.683
same,relative viability,COR-L 105; first compound 0.01 µM,0.741
same,relative viability,COR-L 105; first compound 0.03162 µM,0.577
same,relative viability,COR-L 105; first compound 0.1 µM,0.586
same,relative viability,NCI-H2342; first compound 0.001 µM,0.605
same,relative viability,NCI-H2342; first compound 0.003162 µM,0.618
